The experiment concerns the target MRP2 (ABCC2, multidrug resistance protein 2) (Homo sapiens, UniProt Q92887). The experiment is described as follows: calcein retention (calcein-AM) in Caco-2 cells; CDF transport across Caco-2 monolayers. The class given is cell-based.

Each structure is given as a SMILES string.

Sequence of MRP2 (ABCC2, multidrug resistance protein 2) (Q92887 whole entry): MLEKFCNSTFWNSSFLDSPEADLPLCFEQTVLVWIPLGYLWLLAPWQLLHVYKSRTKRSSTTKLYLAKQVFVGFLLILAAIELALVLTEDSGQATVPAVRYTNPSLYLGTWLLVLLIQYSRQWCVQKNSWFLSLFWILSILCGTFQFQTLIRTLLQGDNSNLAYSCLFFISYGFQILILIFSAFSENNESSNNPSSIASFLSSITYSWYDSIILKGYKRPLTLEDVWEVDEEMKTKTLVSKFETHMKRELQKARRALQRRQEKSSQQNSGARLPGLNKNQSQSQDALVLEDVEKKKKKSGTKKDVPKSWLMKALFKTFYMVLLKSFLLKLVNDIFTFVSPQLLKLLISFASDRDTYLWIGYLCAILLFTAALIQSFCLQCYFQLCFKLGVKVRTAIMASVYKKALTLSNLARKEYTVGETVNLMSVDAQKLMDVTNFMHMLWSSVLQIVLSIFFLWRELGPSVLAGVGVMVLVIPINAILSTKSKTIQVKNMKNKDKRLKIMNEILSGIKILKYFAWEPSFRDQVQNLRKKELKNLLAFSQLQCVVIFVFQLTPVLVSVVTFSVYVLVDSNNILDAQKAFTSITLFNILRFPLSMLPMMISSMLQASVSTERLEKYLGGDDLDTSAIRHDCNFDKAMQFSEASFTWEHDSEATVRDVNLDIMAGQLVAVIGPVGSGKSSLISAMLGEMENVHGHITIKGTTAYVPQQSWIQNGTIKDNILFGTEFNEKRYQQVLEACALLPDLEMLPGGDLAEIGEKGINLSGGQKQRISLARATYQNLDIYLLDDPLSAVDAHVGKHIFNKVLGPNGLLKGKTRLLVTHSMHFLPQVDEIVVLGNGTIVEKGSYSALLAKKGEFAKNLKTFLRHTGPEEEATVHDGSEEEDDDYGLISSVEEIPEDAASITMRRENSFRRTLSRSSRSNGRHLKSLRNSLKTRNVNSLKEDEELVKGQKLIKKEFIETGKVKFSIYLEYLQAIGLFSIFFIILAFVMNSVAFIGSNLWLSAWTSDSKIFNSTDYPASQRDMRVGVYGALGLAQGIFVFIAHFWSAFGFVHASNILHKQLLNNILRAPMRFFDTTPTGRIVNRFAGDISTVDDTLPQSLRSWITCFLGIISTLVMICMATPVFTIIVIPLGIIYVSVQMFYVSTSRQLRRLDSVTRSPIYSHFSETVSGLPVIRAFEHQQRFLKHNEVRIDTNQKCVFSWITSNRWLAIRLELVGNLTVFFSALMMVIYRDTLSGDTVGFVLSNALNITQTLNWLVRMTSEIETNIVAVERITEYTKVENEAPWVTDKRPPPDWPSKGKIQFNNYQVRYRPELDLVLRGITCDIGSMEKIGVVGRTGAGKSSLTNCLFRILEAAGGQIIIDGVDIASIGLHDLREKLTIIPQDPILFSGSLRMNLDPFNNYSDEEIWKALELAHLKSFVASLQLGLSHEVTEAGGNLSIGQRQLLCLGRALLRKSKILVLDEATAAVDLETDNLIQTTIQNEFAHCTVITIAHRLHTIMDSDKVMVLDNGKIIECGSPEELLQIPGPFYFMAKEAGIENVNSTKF

On to `CN(C)C(=O)CCSC(SCCC(=O)O)c1cccc(/C=C/c2ccc3ccc(Cl)cc3n2)c1` (stereo not shown) [MK-571], for which the EC50 was 20 µM.

What is called EC50 is the concentration needed to bring the measured effect to its halfway point.

These data come from publication PMC4730408, “Genistein and Glyceollin Effects on ABCC2 (MRP2) and ABCG2 (BCRP) in Caco-2 Cells” (International Journal of Environmental Research and Public …, 2015).
